# Values joined by “and” are separate entries in the source; they are usually repeats but may differ in a detail not shown here. Equal values may be shown once.
# Columns and labels:
# [1] = biological target: MeV L1708 (Measles virus, UniProt Q9WMB3); test: Biolayer interferometry, MeV L1708 WT; format: binding; settings: for S5 B BLI sensorgram response / S5 C BLI sensorgram response: MeV L1708 WT, 50 µM; for steady-state BLI sensor response: S7 B
# [2] = in vitro; format: cell-based, African green monkey; settings: African green monkey; Vero-hSLAM, 72 hours
# Experimental: (§1) To determine cytotoxic concentrations Vero-hSLAM cells were plated in 96 well plates (1.1 × 10^4 per well) and incubated with three-fold serial dilutions of compound. After incubation of uninfected cells for 72 hours, PrestoBlue substrate (Invitrogen) was added to quantify cell metabolic activity as described. Signal was measured using a BioTek H1 synergy multimode microplate reader. Where applicable, cytotoxic concentrations (CC50) were calculated based on four-parameter variable slope regression modeling.
# [3] = test system: Vero-hSLAM cells; test: in vitro; format: cell-based, African green monkey
# Experimental: as §1
# [4] = biological target: MeV P-L complexes (Measles virus, UniProt Q9WMB3); test: In vitro RdRP assay on 25-nt RSV promoter template (de novo initiation and back-priming); settings: 25-mer RSV promoter template
# [5] = biological target: MeV L full length (Measles virus, UniProt Q9WMB3); test: Biolayer interferometry, full-length MeV P-L; format: binding; settings: for S5 A BLI sensorgram response / S5 D BLI response versus compound conc.: MeV L full length; for steady-state BLI sensor response: S7 A
# [6] = biological target: WT MeV L-P complexes (Measles virus, UniProt Q9WMB3); test: Primer extension RdRP assay, GTP only (first nucleotide), L WT; format: biochemical; settings: 5 h, read-out: first nucleotide incorporation signal (FIG 4D densitometry, first row = 100)
# [7] = test system: MeV L-P complexes L H589Y; format: biochemical; settings: de novo initiation, L H589Y vs WT
# [8] = test system: canine distemper virus (CDV); settings: oral treatment initiated at first day of viremia; cited from earlier work
# [9] = test system: MeV L-P complexes L T776A; format: biochemical; settings: primer extension, L T776A vs WT
# [10] = test system: MeV; test: Cell-based anti-MeV assays of earlier work
smiles,measurement,setting,value
"Cn1nc(C(F)(F)F)cc1C(=O)Nc1ccc(S(=O)(=O)N2CCCC[C@H]2CCN2CCOCC2)cc1 [ERDRP-0519, S(=O)(=O)(N1[C@H](CCN2CCOCC2)CCCC1)c1ccc(NC(=O)c2n(C)nc(C(F)(F)F)c2)cc1]",S5 B BLI sensorgram response,[1]; time 0 s,-0.01268
same,S5 C BLI sensorgram response,[1]; time 0 s,0.001755
same,S5 B BLI sensorgram response,[1]; time 0.2 s,-0.01168
same,S5 C BLI sensorgram response,[1]; time 0.2 s,0.001652
same,S5 B BLI sensorgram response,[1]; time 0.4 s,-0.01101
same,S5 C BLI sensorgram response,[1]; time 0.4 s,0.001542
same,S5 B BLI sensorgram response,[1]; time 0.6 s,-0.01006
same,S5 C BLI sensorgram response,[1]; time 0.6 s,0.001922
same,steady-state BLI sensor response,[1]; 0.003 uM,0.007597
same,steady-state BLI sensor response,[1]; 0.027 uM,0.01138
same,steady-state BLI sensor response,[1]; 0.08 uM,0.01081
same,steady-state BLI sensor response,[1]; 0.74 uM,0.01443
same,steady-state BLI sensor response,[1]; 2.22 uM,0.01474
same,steady-state BLI sensor response,[1]; 6.67 uM,0.01921
same,CC50,[2],> 100000 nM
same,"Cytotoxicity, normalized metabolic activity (Figure 5B)",[3]; cpd concentration 0.045725,92.6189 and 91.5198 and 89.1889
same,"Cytotoxicity, normalized metabolic activity (Figure 5B)",[3]; cpd concentration 0.137174,93.2443 and 94.6845 and 97.0722
same,"Cytotoxicity, normalized metabolic activity (Figure 5B)",[3]; cpd concentration 0.411523,98.6261 and 97.1101 and 101.469
same,"Cytotoxicity, normalized metabolic activity (Figure 5B)",[3]; cpd concentration 1.23457,100.919 and 98.2092 and 94.5139
same,"Cytotoxicity, normalized metabolic activity (Figure 5B)",[3]; cpd concentration 3.7037,98.683 and 65.7665 and 99.5736
same,"Cytotoxicity, normalized metabolic activity (Figure 5B)",[3]; cpd concentration 11.1111,96.5984 and 96.9017 and 98.6451
same,"Cytotoxicity, normalized metabolic activity (Figure 5B)",[3]; cpd concentration 33.3333,105.751 and 104.652 and 106.244
same,"Cytotoxicity, normalized metabolic activity (Figure 5B)",[3]; cpd concentration 100,82.5753 and 96.0868 and 96.0678
same,3'-elongation after backpriming,[4],equivalently dose-dependently blocked
same,S5 A BLI sensorgram response,"[5]; 0.003 µM, time 0 s",-0.0003139
same,S5 A BLI sensorgram response,"[5]; 0.003 µM, time 0.2 s",-0.001098
same,S5 A BLI sensorgram response,"[5]; 0.003 µM, time 0.4 s",-0.001645
same,S5 A BLI sensorgram response,"[5]; 0.003 µM, time 0.6 s",-0.002393
same,S5 A BLI sensorgram response,"[5]; 0.027 µM, time 0 s",0.0009777
same,S5 A BLI sensorgram response,"[5]; 0.027 µM, time 0.2 s",0.001373
same,S5 A BLI sensorgram response,"[5]; 0.027 µM, time 0.4 s",0.001785
same,S5 A BLI sensorgram response,"[5]; 0.027 µM, time 0.6 s",0.001728
same,S5 A BLI sensorgram response,"[5]; 0.08 µM, time 0 s",0.003123
same,S5 A BLI sensorgram response,"[5]; 0.08 µM, time 0.2 s",0.003018
same,S5 A BLI sensorgram response,"[5]; 0.08 µM, time 0.4 s",0.00257
same,S5 A BLI sensorgram response,"[5]; 0.08 µM, time 0.6 s",0.002431
same,S5 A BLI sensorgram response,"[5]; 0.74 µM, time 0 s",0.002177
same,S5 A BLI sensorgram response,"[5]; 0.74 µM, time 0.2 s",0.002548
same,S5 A BLI sensorgram response,"[5]; 0.74 µM, time 0.4 s",0.002706
same,S5 A BLI sensorgram response,"[5]; 0.74 µM, time 0.6 s",0.002805
same,S5 A BLI sensorgram response,"[5]; 2.22 µM, time 0 s",0.01086
same,S5 A BLI sensorgram response,"[5]; 2.22 µM, time 0.2 s",0.01025
same,S5 A BLI sensorgram response,"[5]; 2.22 µM, time 0.4 s",0.009623
same,S5 A BLI sensorgram response,"[5]; 2.22 µM, time 0.6 s",0.009062
same,S5 D BLI response versus compound conc.,[5]; compound conc. 0.003 uM,0.005655
same,S5 D BLI response versus compound conc.,[5]; compound conc. 0.027 uM,0.009916
same,S5 D BLI response versus compound conc.,[5]; compound conc. 0.08 uM,0.008265
same,S5 D BLI response versus compound conc.,[5]; compound conc. 0.74 uM,0.01334
same,steady-state BLI sensor response,[5]; 0.003 uM,0.006846
same,steady-state BLI sensor response,[5]; 0.027 uM,0.008208
same,steady-state BLI sensor response,[5]; 0.08 uM,0.009438
same,steady-state BLI sensor response,[5]; 0.74 uM,0.01375
same,steady-state BLI sensor response,[5]; 6.67 uM,0.01276
same,steady-state BLI sensor response,[5]; 20 uM,0.01504
same,remaining activity at 0.0152416 µM,[6]; 0.0152416 µM,92.5%
same,remaining activity at 0.0457247 µM,[6]; 0.0457247 µM,96.8%
same,remaining activity at 0.137174 µM,[6]; 0.137174 µM,64.3%
same,remaining activity at 0.411523 µM,[6]; 0.411523 µM,40.5%
same,remaining activity at 1.23457 µM,[6]; 1.23457 µM,30.4%
same,remaining activity at 3.7037 µM,[6]; 3.7037 µM,30%
same,remaining activity at 11.1111 µM,[6]; 11.1111 µM,27.6%
same,remaining activity at 33.3333 µM,[6]; 33.3333 µM,26%
same,increase in IC50 value,[7],24 fold
same,survival,[8],all treated animals survived
same,IC50 increase,[9],2.5 fold
same,IC50,[10]; Figure 7A source data,60 nM
same,IC50,[10]; −log10(EC50) of literature EC50,60.1 nM
